# Reference: the NIST ThermoML archive (doi:10.1021/je400755x)
# Numbers after ± are expanded uncertainties.
# Conditions: Liquid, Closed cell (Static) method
SMILES,vapor or sublimation pressure (313.05 K) [kPa],vapor or sublimation pressure (322.92 K) [kPa],vapor or sublimation pressure (333 K) [kPa],vapor or sublimation pressure (342.76 K) [kPa],vapor or sublimation pressure (352.84 K) [kPa],vapor or sublimation pressure (362.75 K) [kPa],vapor or sublimation pressure (369.36 K) [kPa],vapor or sublimation pressure (298.88 K) [kPa],vapor or sublimation pressure (308.19 K) [kPa],vapor or sublimation pressure (313.35 K) [kPa],vapor or sublimation pressure (323.13 K) [kPa],vapor or sublimation pressure (323.19 K) [kPa],vapor or sublimation pressure (323.75 K) [kPa],vapor or sublimation pressure (333.47 K) [kPa],vapor or sublimation pressure (343.12 K) [kPa],vapor or sublimation pressure (343.83 K) [kPa],vapor or sublimation pressure (352.3 K) [kPa],vapor or sublimation pressure (353.05 K) [kPa],vapor or sublimation pressure (363.03 K) [kPa],vapor or sublimation pressure (369.15 K) [kPa]
"C=CCCC=C [1,5-hexadiene]",56 ± 20,78 ± 20,109 ± 20,147 ± 20,197 ± 20,256 ± 20,303 ± 20,,,,,,,,,,,,,
C=CCCl [3-chloro-1-propene],,,,,,,,55 ± 20,75 ± 20,90 ± 20,125 ± 20,126 ± 20,126 ± 20,173 ± 20,228 ± 20,233 ± 20,294 ± 20,301 ± 20,389 ± 20,454 ± 20
